According to the supplement of paper PMC10307832:

Assays:
Assay in all cases: relative viability (nuclei count vs DMSO), 5 days (fraction); higher = more cells survive
PAC-1 + Navitoclax = compound: C=CCc1cccc(/C=N/NC(=O)CN2CCN(Cc3ccccc3)CC2)c1O [PAC-1] + CC1(C)CCC(c2ccc(Cl)cc2)=C(CN2CCN(c3ccc(C(=O)NS(=O)(=O)c4ccc(N[C@H](CCN5CCOCC5)CSc5ccccc5)c(S(=O)(=O)C(F)(F)F)c4)cc3)CC2)C1 [Navitoclax] (partner 0.5 µM)
Outline: (§1)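 For relative viability, nuclei counts in treated wells were divided by those in vehicle wells. Lung cancer cell lines had been pin-tool dosed in 1536-well plates the day after seeding and cultured for 5 days, then fixed and stained in one step (final 0.05% Triton X-100, 1% formaldehyde, 1 ug/ml Hoechst) and imaged at 4×. Doses were one drug alone or a fixed anchor-drug dose plus five library-drug doses (not always all listed) in √10 steps, and values are duplicate-plate medians.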

PAC-1 + Foretinib = compound: C=CCc1cccc(/C=N/NC(=O)CN2CCN(Cc3ccccc3)CC2)c1O [PAC-1] + COc1cc2c(Oc3ccc(NC(=O)C4(C(=O)Nc5ccc(F)cc5)CC4)cc3F)ccnc2cc1OCCCN1CCOCC1 [Foretinib] (partner 0.25 µM)
Outline: as §1

PAC-1 + Dasatinib = compound: C=CCc1cccc(/C=N/NC(=O)CN2CCN(Cc3ccccc3)CC2)c1O [PAC-1] + Cc1nc(Nc2ncc(C(=O)Nc3c(C)cccc3Cl)s2)cc(N2CCN(CCO)CC2)n1 [Dasatinib] (partner 0.075 µM)
Outline: as §1

Ibrutinib + Foretinib = compound: C=CC(=O)N1CCC[C@@H](n2nc(-c3ccc(Oc4ccccc4)cc3)c3c(N)ncnc32)C1 [Ibrutinib] + COc1cc2c(Oc3ccc(NC(=O)C4(C(=O)Nc5ccc(F)cc5)CC4)cc3F)ccnc2cc1OCCCN1CCOCC1 [Foretinib] (partner 0.25 µM)
Outline: as §1

Cell Line | relative viability (PAC-1 + Navitoclax; first compound 0.02 µM) | relative viability (PAC-1 + Navitoclax; first compound 0.06325 µM) | relative viability (PAC-1 + Navitoclax; first compound 0.2 µM) | relative viability (PAC-1 + Navitoclax; first compound 2 µM) | relative viability (PAC-1 + Foretinib; first compound 0.02 µM) | relative viability (PAC-1 + Foretinib; first compound 0.06325 µM) | relative viability (PAC-1 + Foretinib; first compound 0.2 µM) | relative viability (PAC-1 + Foretinib; first compound 2 µM) | relative viability (PAC-1 + Dasatinib; first compound 0.02 µM) | relative viability (PAC-1 + Dasatinib; first compound 0.06325 µM) | relative viability (PAC-1 + Dasatinib; first compound 0.2 µM) | relative viability (PAC-1 + Dasatinib; first compound 2 µM) | relative viability (Ibrutinib + Foretinib; first compound 0.005 µM) | relative viability (Ibrutinib + Foretinib; first compound 0.01581 µM) | relative viability (Ibrutinib + Foretinib; first compound 0.05 µM) | relative viability (Ibrutinib + Foretinib; first compound 0.1581 µM) | relative viability (Ibrutinib + Foretinib; first compound 0.5 µM)
NCI-H441 | 0.435 | 0.645 | 0.587 | 0.56 | 0.977 | 0.943 | 0.817 | 0.896 | 0.593 | 0.628 | 0.438 | 0.573 | 0.898 | 1.11 | 1.1 | 1.08 | 0.895
NCI-H460 | 1.1 | 1.14 | 0.922 | 1.09 | 1.08 | 0.915 | 0.954 | 0.959 | 0.524 | 0.477 | 0.464 | 0.521 | 1.06 | 0.909 |  | 1.01 | 0.992
NCI-H520 | 1.11 | 1.02 | 1.04 | 1.12 | 0.818 | 0.769 | 0.682 | 0.723 | 0.172 | 0.213 | 0.19 | 0.225 | 0.672 |  | 0.734 | 0.945 | 0.531
NCI-H596 | 0.887 | 0.932 | 0.951 | 0.951 | 0.767 | 0.832 | 0.876 | 0.894 | 0.571 | 0.659 | 0.573 | 0.664 |  | 0.808 | 0.803 | 0.793 | 0.567
NCI-H647 | 1.23 | 1.09 | 1.16 | 1.2 | 1.17 | 1.08 | 1.29 | 1.31 | 0.203 | 0.172 | 0.185 | 0.164 |  | 1.13 | 1.23 | 1.25 | 1.17
NCI-H727 | 0.425 | 0.452 | 0.352 | 0.42 | 0.811 | 1.02 | 0.937 | 0.881 | 0.334 | 0.338 | 0.368 | 0.358 | 0.911 | 0.785 | 0.914 |  | 0.695
NCI-H838 | 1.08 | 1.12 | 1.08 | 1.21 | 1.06 | 0.953 | 1.01 | 1.06 | 0.247 | 0.278 | 0.243 | 0.311 | 0.929 | 0.985 | 1.07 | 1.01 | 1.02
NCI-H1355 | 0.866 | 0.961 | 0.965 | 0.962 | 0.921 | 0.983 | 0.936 | 1.04 | 0.75 | 0.722 | 0.667 | 0.711 | 0.863 | 0.88 | 0.848 | 0.981 | 0.793
NCI-H1395 | 1.21 | 1.16 | 1.32 | 1.32 | 0.937 | 1.02 | 0.875 | 0.873 | 0.403 | 0.476 | 0.387 | 0.422 | 0.913 | 0.922 | 1.02 | 0.982 | 0.907
NCI-H1437 | 1.04 | 1.12 | 1.01 | 0.775 | 1.19 | 1.23 | 1.3 | 1.1 | 0.298 | 0.425 | 0.459 | 0.278 | 1.33 | 1.19 | 1.26 | 1.28 | 1.27
NCI-H1650 | 1.18 | 1.15 | 1.22 | 1.04 | 0.892 | 1.31 | 1.22 | 0.732 | 0.363 | 0.305 | 0.263 | 0.361 | 1.01 | 0.793 | 0.934 |  | 0.732
NCI-H1651 | 0.924 | 1.12 | 1.06 | 1.09 | 0.796 | 0.72 | 0.735 | 0.917 | 0.391 | 0.446 | 0.394 | 0.393 | 0.928 | 0.931 | 0.896 | 0.882 | 0.615
NCI-H1666 | 1.14 | 0.915 | 0.933 | 1.04 | 0.975 | 0.979 | 0.995 | 0.95 | 0.834 | 0.845 | 0.793 | 0.836 | 0.981 | 0.919 | 0.919 | 0.988 | 0.74
NCI-H1734 | 0.826 | 0.832 | 0.813 | 0.881 | 0.759 | 0.779 | 0.762 | 0.759 | 0.361 | 0.521 | 0.397 | 0.51 | 0.827 | 0.822 | 0.965 | 0.895 | 0.718
NCI-H1755 | 0.959 | 0.954 | 0.986 | 0.989 | 0.948 | 0.976 | 0.948 | 0.949 | 0.426 | 0.446 | 0.384 | 0.443 | 0.929 | 0.925 | 0.951 | 1.02 | 0.855
NCI-H1793 | 0.453 | 0.46 | 0.535 | 0.461 | 0.651 | 0.504 | 0.646 | 0.559 | 0.373 | 0.373 | 0.364 | 0.412 |  | 0.566 | 0.552 | 0.545 | 0.416
NCI-H1915 | 0.449 | 0.794 | 0.751 | 0.767 | 1.09 | 1.08 | 1.02 | 1.08 | 0.313 | 0.336 | 0.317 | 0.29 | 1.12 | 1.07 | 1.11 | 1.15 | 1.09
NCI-H1944 | 1.03 | 1.04 | 0.954 | 1.04 | 0.882 | 0.802 | 0.783 | 0.891 | 0.209 | 0.222 | 0.204 | 0.216 | 0.891 | 0.734 | 0.72 | 0.879 | 0.605
